Assay results published in patent US9688709B2, “Phosphaplatins and their use for treatment of cancers” (OHIO UNIVERSITY, priority 2010, dated 2017).
Where two headings read alike, the source gives them in different places.

Experiments:
[1] = test system: human ovarian cancer A2780 xenograft; experiment: In vivo efficacy, A2780 mouse xenograft; set-up: species or system mice
Procedure: Stable clonal ovarian cancer cell lines A2780 were grown in cell culture until 80-90% confluency was reached. Trypsin (GIBCO/BRL, Grand Island, N.Y.) was used to detach adherent cells. Trypsinized cells were thoroughly washed with PBS (Phosphate Buffered Saline) to remove trypsin. Efficacy of phosphaplatin compounds were evaluated using human ovarian cancer, A2780 by subcutaneous xenograft in SCID Hairless OutBred, SHO-Prkdc^scidHr^hr, (Charles River Labs, Wilmington, Mass.) mice. Female SCID mice 4 to 5 weeks old were acclimated for one week before initiation of efficacy trials.
Cancer cells were re-suspended in PBS, and all mice except for negative control mice were injected subcutaneously with from 1×10^6 cells/0.10 mL to 5×10^6 cells/0.10 mL in PBS and were evaluated for tumors as a function of time using sterile 26 gauge needles and syringes. The mice were examined daily for tumor growth. Tumors were measured using digital calipers. The tumor volume was calculated by the formula (W^2×L)/2, where W is the tumor measurement at the widest point, and L is the tumor dimension at the longest point, where the volume of the tumor in mm^3 is equivalent to the weight in mg. […]
The xenograft SCID mice were monitored every day for any adverse events in their health by measuring weight loss/gain and food consumption. […]

[2] = test system: human ovarian cancer OVCAR-10 xenograft; experiment: In vivo efficacy, OVCAR-10 mouse xenograft; set-up: species or system mice; settings: 40 mg/kg body weight, during the treatment time
Procedure: Stable human clonal ovarian cancer cell lines OVCAR-10 and head and neck cancer UMSCC10b were grown separately in cell culture until 80-90% confluency was reached. Trypsin (GIBCO/BRL, Grand Island, N.Y.) was used to detach adherent cells. Trypsinized cells were thoroughly washed with PBS (Phosphate Buffered Saline) to remove trypsin. Efficacy of phosphaplatin compounds were evaluated by subcutaneously implanting human OVCAR-10 and UMSCC-10b xenograft in SCID Hairless OutBred, SHO-Prkdc^scidHr^hr, (Charles River Labs, Wilmington, Mass.) mice, NIH (NIH III: NIHBNX-F; NIHS-Lystbg Foxnlnu Btkxid, 4-week old female, Taconic (Rensselaer, N.Y.) mice.
Female SCID/NIH mice 4-5 weeks old were acclimated for one week before initiation of efficacy trials. Cancer cells were re-suspended in PBS and all mice except for negative control mice were injected subcutaneously with from 1×10^6 cells/0.10 mL to 5×10^6 cells/0.10 mL in PBS. The tumor size was evaluated as a function of time. The mice were examined daily for tumor growth. Tumors were measured using digital calipers. The tumor volume was calculated by the formula (W^2×L)/2, where W is the tumor measurement at the widest point, and L is the tumor dimension at the longest point, where the volume of the tumor in mm^3 is equivalent to the weight in mg.
After approximately 2 weeks of the subcutaneous injection of cancer cells, the tumors that had reached a distinguishable tumor sizes (approximately 100 mm^3 to 200 mm^3), phosphaplatin compounds of desired doses were administered intra-peritoneally. These administrations were done one time on day 1, once on day 3, and once on day 5.
Each group of xenograft mice was treated with phosphaplatin compounds, and a matched set was treated with vehicle/placebo (PBS solution) and mock injection (as a control for stress response). […] The xenograft SCID mice/NIH were monitored every day for any adverse events in their health by measuring weight loss/gain and food consumption. Measurements were stopped and the study was ended when the tumor size exceeded 3000 mm^3. […]

[3] = Stability in aqueous solution at neutral pH (31P-NMR); format: physicochemical
Excerpt: Typically, no decomposition is observed within seven days after dissolving the phosphaplatin compounds in water and observing by ^31P-NMR spectroscopy.

SMILES	tumor response ([1]; 10 mg/kg qodx3, first ten days of treatment)	tumor response [2]	stability at neutral pH in aqueous solution [3]	tumor response ([1]; 40 mg/kg qodx3, first ten days of treatment)	stability at neutral pH in aqueous solution ([3]; dissolved in water, observed by 31P-NMR, seven days)
O=P1(O)OP(=O)(O)[O][Pt]2([OH])([OH])([NH][C@@H]3CCCC[C@H]3[NH]2)[O]1 [(1R,2R)-pyrodach-4, ((1R,2R)-1,2-cyclohexanediamine)-trans-dihydroxo(dihydrogenpyrophosphato)platinum (IV)]	tumor regression	tumor regression	remarkable stability	–	–
O=P1(O)OP(=O)(O)[O][Pt]2([NH][C@@H]3CCCC[C@H]3[NH]2)[O]1 (stereo partly drawn) [(1R,2R)-pyrodach-2, ((1R,2R)-1,2-cyclohexanediamine)(dihydrogenpyrophosphato)platinum (II)]	–	tumor regression	–	tumor regression	remarkable stability
